Counter-ions that a name gives are not always drawn.

The record followed here is the supplement of paper PMC12137928.

In the experiment the test system is HCT116. The following applies: 72 h. Put shortly: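 After seeding at 250 cells per well in 1536-well plates, HCT116 cells were given 5 h to attach. CellTiter-Glo luminescence, scaled to 0% for vehicle and -100% for positive control, was pattern-corrected. Fitting with a four-parameter Hill model produced IC50 and maximal efficacy.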

Take `O=C1C(CC[S+]([O-])c2ccccc2)C(=O)N(c2ccccc2)N1c1ccccc1` (stereo not given) [SULFINPYRAZONE]: the IC50 cell viability (ICRF193 0 nM) was over 45.8 µM and the IC50 cell viability (ICRF193 200 nM) was over 45.8 µM.
Turning to `CCCCOCCOCCOCc1cc2c(cc1CCC)OCO2` [Piperonyl butoxide], the IC50 cell viability (ICRF193 0 nM) was over 45.8 µM and the IC50 cell viability (ICRF193 200 nM) is over 45.8 µM.
With `CCN(Cc1ccncc1)C(=O)C(CO)c1ccccc1` (stereo not given) [Tropicamide], the IC50 cell viability by setting is: (ICRF193 0 nM) over 45.8 µM; (ICRF193 200 nM) over 45.8 µM.
Regarding `C[C@@H](O)[C@H]1C(=O)N2C(C(=O)O)=C(S[C@@H]3CN[C@H](C(=O)N(C)C)C3)[C@H](C)[C@H]12` [Meropenem], the IC50 cell viability (ICRF193 0 nM) is over 45.8 µM and the IC50 cell viability (ICRF193 200 nM) was over 45.8 µM.
Consider `C[C@H](O)[C@H]1CC[C@H]2[C@@H]3CC[C@@H]4C[C@H](O)CC[C@]4(C)[C@H]3CC[C@]12C` [Pregnandiol], for which the IC50 cell viability runs as follows: (ICRF193 0 nM) over 45.8 µM; (ICRF193 200 nM) over 45.8 µM.
As for `CCN(CC)C(C)CN1c2ccccc2Sc2ccccc21` (stereo not given) [Ethopropazine hydrochloride], the IC50 cell viability (ICRF193 0 nM) is over 45.8 µM and the IC50 cell viability (ICRF193 200 nM) is over 45.8 µM.
For `Cc1cccc(C)c1NC1=NCCCS1` [Xylazine], the IC50 cell viability was over 45.8 µM (ICRF193 0 nM) and over 45.8 µM (ICRF193 200 nM).
`CC(=O)OCC(=O)[C@@]1(O)[C@H](C)C[C@H]2[C@@H]3CCC4=CC(=O)C=C[C@]4(C)[C@@]3(F)[C@@H](O)C[C@@]21C` [Dexamethasone acetate] yielded an IC50 cell viability (ICRF193 0 nM) of over 45.8 µM and an IC50 cell viability (ICRF193 200 nM) of over 45.8 µM.
For `C=CCN.ClCC1CO1` (stereo not given) [Sevelamer Hydrochloride (Technical Grade)], the IC50 cell viability is over 45.8 µM (ICRF193 0 nM) and over 45.8 µM (ICRF193 200 nM).
Consider `NC(=O)c1cc([N+](=O)[O-])cc([N+](=O)[O-])c1` [Nitromide], for which the IC50 cell viability is over 45.8 µM (ICRF193 0 nM) and over 45.8 µM (ICRF193 200 nM).
With `CCOC(=O)Nc1ccc2c(c1)N(C(=O)CCN1CCOCC1)c1ccccc1S2` [Moricizine hydrochloride], the IC50 cell viability by setting is: (ICRF193 0 nM) over 45.8 µM; (ICRF193 200 nM) over 45.8 µM.
Consider `CC(C)[C@H](N)C(=O)OCC(CO)OCn1cnc2c(=O)[nH]c(N)nc21` (stereo not given in full) [Valganciclovir·HCl], for which the IC50 cell viability was over 45.8 µM (ICRF193 0 nM) and over 45.8 µM (ICRF193 200 nM).
As to `CN(C)c1ccc(O)c2c1C[C@H]1C[C@H]3[C@H](N(C)C)C(O)=C(C(N)=O)C(=O)[C@@]3(O)C(O)=C1C2=O` [Minocycline hydrochloride], the IC50 cell viability by setting is: (ICRF193 0 nM) over 45.8 µM; (ICRF193 200 nM) over 45.8 µM.
For the compound `Cc1c(O)c(=O)ccn1C` [Deferiprone], the IC50 cell viability is over 45.8 µM (ICRF193 0 nM) and over 45.8 µM (ICRF193 200 nM).
With `C[C@]12CCC3=C4CCC(=O)C=C4CC[C@H]3[C@@H]1CC[C@@]2(O)CC#N` [Dienogest], the IC50 cell viability runs as follows: (ICRF193 0 nM) over 45.8 µM; (ICRF193 200 nM) over 45.8 µM.
For `C[C@@H](CO)NC(=O)[C@@H]1C=C2c3cccc4[nH]cc(c34)C[C@H]2N(C)C1` [Ergobasine], the IC50 cell viability is over 45.8 µM (ICRF193 0 nM) and over 45.8 µM (ICRF193 200 nM).
For the compound `CO[C@@H]1[C@@H](OC(N)=O)[C@@H](O)[C@H](Oc2ccc3c(O)c(NC(=O)c4ccc(O)c(CC=C(C)C)c4)c(=O)oc3c2C)OC1(C)C` [Novobiocin sodium], the IC50 cell viability was over 45.8 µM (ICRF193 0 nM) and over 45.8 µM (ICRF193 200 nM).
For the compound `CCC1(C)OC(=O)N(C)C1=O` (stereo not given) [PARAMETHADIONE], the IC50 cell viability is, setting by setting: (ICRF193 0 nM) over 45.8 µM; (ICRF193 200 nM) over 45.8 µM.
As to `CC(=O)Oc1cccc(C)c1` [m-Cresyl acetate], the IC50 cell viability by setting is: (ICRF193 0 nM) over 45.8 µM; (ICRF193 200 nM) over 45.8 µM.
As for `CCCCCCCCCC(=O)OCCN1CCN(CC/C=C2/c3ccccc3Sc3ccc(Cl)cc32)CC1` [Zuclopenthixol Decanoate], the IC50 cell viability was over 45.8 µM (ICRF193 0 nM) and over 45.8 µM (ICRF193 200 nM).
Turning to `CCn1nc(C(=O)O)c(=O)c2cc3c(cc21)OCO3` [Cinoxacin], the IC50 cell viability is over 45.8 µM (ICRF193 0 nM) and over 45.8 µM (ICRF193 200 nM).
In the case of `Nc1ccc(C(=O)NCC(=O)O)cc1` [Aminohippuric acid], the IC50 cell viability by setting is: (ICRF193 0 nM) over 45.8 µM; (ICRF193 200 nM) over 45.8 µM.
For `CN1CCC(=C2c3ccccc3CCc3sccc32)CC1` [Pizotifen], the IC50 cell viability reads like this: (ICRF193 0 nM) over 45.8 µM; (ICRF193 200 nM) over 45.8 µM.
As for `C=CCc1ccccc1OCC(O)CNC(C)C` (stereo not given) [Alprenolol], the IC50 cell viability runs as follows: (ICRF193 0 nM) over 45.8 µM; (ICRF193 200 nM) over 45.8 µM.
As to `C/C=C/c1ccc(OC)cc1` [Anethole], the IC50 cell viability reads like this: (ICRF193 0 nM) over 45.8 µM; (ICRF193 200 nM) over 45.8 µM.
On to `C[Se]CC[C@H](N)C(=O)O` [Selenomethionine], for which the IC50 cell viability reads like this: (ICRF193 0 nM) over 45.8 µM; (ICRF193 200 nM) over 45.8 µM.
As to `C[C@]12CC[C@@H]3c4ccc(O)cc4CC[C@H]3[C@@H]1C[C@@H](O)[C@@H]2O` [Estriol], the IC50 cell viability reads like this: (ICRF193 0 nM) over 45.8 µM; (ICRF193 200 nM) over 45.8 µM.
On to `CCN(CC)C(=O)Nc1ccc(OCC(O)CNC(C)(C)C)c(C(C)=O)c1` (stereo not given) [Celiprolol hydrochloride], for which the IC50 cell viability reads like this: (ICRF193 0 nM) over 45.8 µM; (ICRF193 200 nM) over 45.8 µM.
Consider `O=C(O)CCNC(=O)c1ccc(/N=N/c2ccc(O)c(C(=O)O)c2)cc1` [Balsalazide disodium], for which the IC50 cell viability reads like this: (ICRF193 0 nM) over 45.8 µM; (ICRF193 200 nM) over 45.8 µM.
Regarding `Cc1[nH]c(=O)c(C#N)cc1-c1ccncc1` [Milrinone], the IC50 cell viability is, setting by setting: (ICRF193 0 nM) over 45.8 µM; (ICRF193 200 nM) over 45.8 µM.
Turning to `CN1CCN(C(=O)O[C@H]2c3nccnc3C(=O)N2c2ccc(Cl)cn2)CC1` [Eszopiclone], the IC50 cell viability reads like this: (ICRF193 0 nM) over 45.8 µM; (ICRF193 200 nM) over 45.8 µM.
For `CC(=O)CCC1C(=O)N(c2ccccc2)N(c2ccccc2)C1=O` [Kebuzone], the IC50 cell viability is, setting by setting: (ICRF193 0 nM) over 45.8 µM; (ICRF193 200 nM) over 45.8 µM.
As for `CCCCCCCCCCC[C@@H](C[C@@H]1OC(=O)[C@H]1CCCCCC)OC(=O)[C@H](CC(C)C)NC=O` [Orlistat], the IC50 cell viability by setting is: (ICRF193 0 nM) over 45.8 µM; (ICRF193 200 nM) over 45.8 µM.
On to `Cc1oc(-c2ccccc2)nc1CCOc1ccc(CC2C(=O)NOC2=O)cc1` (stereo not given) [JTT-501], for which the IC50 cell viability is, setting by setting: (ICRF193 0 nM) over 45.8 µM; (ICRF193 200 nM) over 45.8 µM.
In the case of `CCCOC(=O)c1ccc(O)cc1` [Propyl-4-hydroxybenzoate], the IC50 cell viability was over 45.8 µM (ICRF193 0 nM) and over 45.8 µM (ICRF193 200 nM).
In the case of `CC(C)=CCC/C(C)=C/CC/C(C)=C/CC/C(C)=C/CC/C(C)=C/CC1=C(C)C(=O)c2ccccc2C1=O` [Menaquinone], the IC50 cell viability runs as follows: (ICRF193 0 nM) over 45.8 µM; (ICRF193 200 nM) over 45.8 µM.
With `Nc1nc2[nH]cc(CCc3ccc(C(=O)N[C@@H](CCC(=O)O)C(=O)O)cc3)c2c(=O)[nH]1` [Pemetrexed disodium heptahydrate], the IC50 cell viability is, setting by setting: (ICRF193 0 nM) over 45.8 µM; (ICRF193 200 nM) over 45.8 µM.
Regarding `CC[N+](C)(CC)CCOC(=O)C(O)(c1ccccc1)C1CCCCC1` (stereo not given) [Oxyphenonium bromide], the IC50 cell viability by setting is: (ICRF193 0 nM) over 45.8 µM; (ICRF193 200 nM) over 45.8 µM.
For `C[C@@H]1CN(c2c(F)c(N)c3c(=O)c(C(=O)O)cn(C4CC4)c3c2F)C[C@H](C)N1` [Sparfloxacin], the IC50 cell viability runs as follows: (ICRF193 0 nM) over 45.8 µM; (ICRF193 200 nM) over 45.8 µM.
With `CC[N+]1(CC)CCC(=C(c2ccccc2)c2ccccc2)C1C` (stereo not given) [Prifinium bromide], the IC50 cell viability was over 45.8 µM (ICRF193 0 nM) and over 45.8 µM (ICRF193 200 nM).
On to `CCCNC(=O)NS(=O)(=O)c1ccc(Cl)cc1` [Chlorpropamide], for which the IC50 cell viability reads like this: (ICRF193 0 nM) over 45.8 µM; (ICRF193 200 nM) over 45.8 µM.
For `CC(O)(P(=O)(O)O)P(=O)(O)O` [Etidronate disodium], the IC50 cell viability runs as follows: (ICRF193 0 nM) over 45.8 µM; (ICRF193 200 nM) over 45.8 µM.
As for `NCCCNCCSP(=O)(O)O` [Amifostine], the IC50 cell viability runs as follows: (ICRF193 0 nM) over 45.8 µM; (ICRF193 200 nM) over 45.8 µM.
As to `OCCN1CCN(CCC=C2c3ccccc3Sc3ccc(Cl)cc32)CC1` [Zuclopenthixol (-)-10-Camphorsulfonic Acid Salt], the IC50 cell viability is over 45.8 µM (ICRF193 0 nM) and over 45.8 µM (ICRF193 200 nM).
With `COc1cc(CNC(=O)CCCC/C=C/C(C)C)ccc1O` [(E)-Capsaicin], the IC50 cell viability is, setting by setting: (ICRF193 0 nM) over 45.8 µM; (ICRF193 200 nM) over 45.8 µM.
`O=S(=O)(O)c1ccc(O)cc1` [4-Phenolsulfonic acid] showed an IC50 cell viability (ICRF193 0 nM) of over 45.8 µM and an IC50 cell viability (ICRF193 200 nM) of over 45.8 µM.
Regarding `CC(C)(C)NC(=O)[C@H]1CC[C@H]2[C@@H]3CC[C@H]4NC(=O)C=C[C@]4(C)[C@H]3CC[C@]12C` [Finasteride], the IC50 cell viability (ICRF193 0 nM) is over 45.8 µM and the IC50 cell viability (ICRF193 200 nM) is over 45.8 µM.
With `CCCCCCCCCCCCCCCCOc1nc2ccc(C)cc2c(=O)o1` [Cetilistat], the IC50 cell viability was over 45.8 µM (ICRF193 0 nM) and over 45.8 µM (ICRF193 200 nM).
For `CC(Cc1ccccc1)NCc1ccccc1Cl` (stereo not given) [Clobenzorex hydrochloride], the IC50 cell viability runs as follows: (ICRF193 0 nM) over 45.8 µM; (ICRF193 200 nM) over 45.8 µM.
Take `CN(C/C=C/C#CC(C)(C)C)Cc1cccc2ccccc12` [Terbinafine]: the IC50 cell viability is, setting by setting: (ICRF193 0 nM) over 45.8 µM; (ICRF193 200 nM) over 45.8 µM.
`O=C(O)CNC(=O)c1ccccc1` [Hippuric acid] returned an IC50 cell viability (ICRF193 0 nM) of over 45.8 µM and an IC50 cell viability (ICRF193 200 nM) of over 45.8 µM.
For the compound `CCOc1ccccc1OCCN[C@H](C)Cc1ccc(OC)c(S(N)(=O)=O)c1` [Tamsulosin hydrochloride], the IC50 cell viability was over 45.8 µM (ICRF193 0 nM) and over 45.8 µM (ICRF193 200 nM).
Regarding `CN1CCN(CC(=O)N2c3ccccc3C(=O)Nc3cccnc32)CC1` [Pirenzepine], the IC50 cell viability is, setting by setting: (ICRF193 0 nM) over 45.8 µM; (ICRF193 200 nM) over 45.8 µM.
Take `CCOC(=O)/C=C(C)/C=C/C[C@@H](C)CCCC(C)C` [S-Hydroprene]: the IC50 cell viability was over 45.8 µM (ICRF193 0 nM) and over 45.8 µM (ICRF193 200 nM).
For the compound `O=C(O)CC/C=C\CC[C@@H]1[C@@H](N2CCCCC2)[C@@H](O)C[C@@H]1OCc1ccc(-c2ccccc2)cc1` [Vapiprost hydrochloride], the IC50 cell viability reads like this: (ICRF193 0 nM) over 45.8 µM; (ICRF193 200 nM) over 45.8 µM.
